Literature values, collected in US20040062802A1, “Maximizing effectiveness of substances used to improve health and well being” (priority 1998, published 2004).
Read-outs that look alike come from different tables or passages of the source.

Assays:
[1] = cited from earlier work
[2] = tested on: HIV; conditions: 200 mg AZT orally every 4 hours for 7 day periods alternating with ddC 0.03 mg/kg orally every 4 hours for 7 day periods; cited from earlier work
[3] = tested on: bone marrow cells; conditions: mouse, in vivo; cited from earlier work
[4] = cited from earlier work; remark: listed apart in the source
[5] = tested on: mouse model; conditions: drug received at the beginning of the sleep phase; cited from earlier work
[6] = tested on: male patients with clinical of BPH; conditions: cited from earlier work; for I-PSS Endpoint / Qmax Endpoint: 24 weeks; for I-PSS Endpoint / Qmax Endpoint / I-PSS Baseline / Qmax Baseline: mean; for I-PSS Baseline / Qmax Baseline: after 2 week placebo run-in
[7] = mean, N = 24, cited from earlier work; for AUC0-24 h: 1 mg daily 10 days then 2 mg daily 5 days
[8] = 800 mg group versus 400 mg group

COC(=O)C(c1ccccc1)C1CCCCN1 (stereo not shown) [methylphenidate]
plasma profile ([1]; ADD, conventional 10 mg at 7 am and 10 mg at 12 pm, FIG. I solid line): high dosages of the drug would be present in the body throughout the afternoon and early evening
plasma profile ([1]; narcolepsy, conventional 20 mg at 7 am, 10 mg at 12 pm and 10 mg at 5 pm, FIG. II solid line): lower dosages of the drug are present in the patient during the morning hours

Cc1cn([C@H]2C[C@H](N=[N+]=[N-])[C@@H](CO)O2)c(=O)[nH]c1=O [AZT]
outcome of alternating regimen [2]: promising treatment regimen
toxicity (peripheral blood parameters, proportion of bone marrow cells arrested at the S-phase gate) [3]: significantly less toxic
duration of the effect of AZT ([4]; 400 mg group versus 800 mg group): significantly longer
AZT withdrawn or dose reduced [4, 8]: reduced more frequently
adverse reaction [4, 8]: more frequently observed

N.N.O=C([O-])C1(C(=O)[O-])CCC1.[Pt+2] [carboplatin, Carboplatin]
marrow toxicity [5]: lowest marrow toxicity
mean survival time [5]: longest mean survival time

COc1cc2nc(N3CCN(C(=O)C4COc5ccccc5O4)CC3)nc(N)c2cc1OC (stereo not shown) [Doxazosin]
clinical efficacy versus placebo ([6]; at 6 weeks and endpoint): significantly differed from placebo
I-PSS Endpoint ([6]; evening (8 pm) dosing): 11.7
Qmax Endpoint ([6]; evening (8 pm) dosing): 12.30 mL/s
I-PSS Mean Change ([6]; evening (8 pm) dosing): −6.7
I-PSS Responders ([6]; evening (8 pm) dosing): 62.6
Qmax Mean Change ([6]; evening (8 pm) dosing): 1.94 mL/s
Qmax Responders ([6]; evening (8 pm) dosing): 28.4
I-PSS Baseline ([6]; evening (8 pm) group): 18.2
Qmax Baseline ([6]; evening (8 pm) group): 10.49 mL/s
I-PSS Endpoint ([6]; morning (8 am) dosing): 11.0
Qmax Endpoint ([6]; morning (8 am) dosing): 11.84 mL/s
I-PSS Mean Change ([6]; morning (8 am) dosing): −6.9
I-PSS Responders ([6]; morning (8 am) dosing): 57.4
Qmax Mean Change ([6]; morning (8 am) dosing): 1.51 mL/s
Qmax Responders ([6]; morning (8 am) dosing): 29.7
I-PSS Baseline ([6]; morning (8 am) group): 18.5
Qmax Baseline ([6]; morning (8 am) group): 10.17 mL/s
AUC0-24 h ([7]; evening dosing (8 pm)): 253.66 ng·h/mL
Cmax ([7]; evening dosing (8 pm)): 15.76 ng/mL
T1/2 ([7]; evening dosing (8 pm)): 18.77 h
Tmax ([7]; evening dosing (8 pm)): 5.60 h
AUC0-24 h ([7]; morning dosing (8 am)): 227.90 ng·h/mL
Cmax ([7]; morning dosing (8 am)): 16.98 ng/mL
T1/2 ([7]; morning dosing (8 am)): 19.52 h
Tmax ([7]; morning dosing (8 am)): 3.46 h
